The target in data set [1] is T1, Microsomal triglyceride transfer protein (MTP) from bovine liver (Bos taurus, UniProt P55156).
T1 construct: the purified MTP was used for the test; from tissue; host or cells: bovine liver
T1 sequence (P55156 12-887): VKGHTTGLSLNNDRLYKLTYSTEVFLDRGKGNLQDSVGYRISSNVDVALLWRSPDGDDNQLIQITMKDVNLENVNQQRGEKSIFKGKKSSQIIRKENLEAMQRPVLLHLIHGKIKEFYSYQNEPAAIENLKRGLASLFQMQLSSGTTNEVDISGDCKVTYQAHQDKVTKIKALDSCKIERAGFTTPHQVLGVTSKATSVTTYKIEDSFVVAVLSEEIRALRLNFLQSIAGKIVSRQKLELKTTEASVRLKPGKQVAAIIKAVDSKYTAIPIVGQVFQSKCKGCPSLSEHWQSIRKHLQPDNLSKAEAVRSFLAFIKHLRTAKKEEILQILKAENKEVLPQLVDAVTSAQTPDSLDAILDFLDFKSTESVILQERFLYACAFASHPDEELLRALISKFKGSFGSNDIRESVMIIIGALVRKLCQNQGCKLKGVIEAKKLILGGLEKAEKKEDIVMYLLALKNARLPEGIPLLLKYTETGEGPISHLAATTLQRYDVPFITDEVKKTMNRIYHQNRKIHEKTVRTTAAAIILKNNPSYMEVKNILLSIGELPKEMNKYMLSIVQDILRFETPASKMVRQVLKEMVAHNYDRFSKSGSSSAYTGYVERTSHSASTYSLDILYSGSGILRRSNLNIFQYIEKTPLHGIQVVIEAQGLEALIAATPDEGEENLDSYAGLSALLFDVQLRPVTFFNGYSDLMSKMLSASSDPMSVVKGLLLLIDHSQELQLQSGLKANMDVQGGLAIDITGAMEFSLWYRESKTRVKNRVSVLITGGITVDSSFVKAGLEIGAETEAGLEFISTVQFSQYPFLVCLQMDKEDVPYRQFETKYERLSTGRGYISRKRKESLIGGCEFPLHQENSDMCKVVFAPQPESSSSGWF
T1 sequence (P05307 21-510 partner): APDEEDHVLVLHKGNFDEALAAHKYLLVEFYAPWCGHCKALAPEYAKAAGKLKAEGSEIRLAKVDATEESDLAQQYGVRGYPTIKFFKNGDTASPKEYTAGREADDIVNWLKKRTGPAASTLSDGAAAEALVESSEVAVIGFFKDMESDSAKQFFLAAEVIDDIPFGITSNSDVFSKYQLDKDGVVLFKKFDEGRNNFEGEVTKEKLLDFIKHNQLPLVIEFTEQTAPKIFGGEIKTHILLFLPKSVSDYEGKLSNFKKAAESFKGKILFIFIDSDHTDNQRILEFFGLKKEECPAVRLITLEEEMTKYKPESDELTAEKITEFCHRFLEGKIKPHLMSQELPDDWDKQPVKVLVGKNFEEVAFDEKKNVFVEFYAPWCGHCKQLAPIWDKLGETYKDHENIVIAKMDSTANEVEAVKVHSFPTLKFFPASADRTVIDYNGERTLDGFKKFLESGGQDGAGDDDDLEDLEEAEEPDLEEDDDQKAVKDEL
The data set can be described thus: Inhibition of interliposomal triglyceride (TG) transfer activity by MTP. In kind it is biochemical. The note with it: MTP-mediated TG transfer between donor and acceptor liposomes, 37° C., one hour. The method, boiled down:
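Partially purified bovine liver MTP (DEAE chromatography) was incubated 1 h at 37° C with ^14C-triolein donor SUV liposomes and unlabeled acceptor liposomes in pH 7.4 Tris buffer with 0.5% BSA. Donor was removed with DEAE cellulose and acceptor radioactivity counted. IC50 came from blank-corrected inhibition relative to DMSO.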

The nature of data set [2]: Metabolic stability test in small intestine S9 (hamster). It counts as in vitro ADME. The note with it: Hamster small intestine S9, 2 mg protein/mL, 37° C. How it is done: (§1) Human and hamster liver S9 (final concentration: 2 mg protein/mL), and human and hamster small intestine S9 (final concentration: 2 mg protein/mL) were each suspended in 100 mM potassium phosphate buffer (pH 7.4, containing β-nicotinamide adenine dinucleotide phosphate: 1.3 mM, D-glucose-6-phosphate: 3.3 mM, magnesium chloride: 3.3 mM, and glucose-6-phosphate dehydrogenase: 0.4 U/mL). The suspensions were mixed with a solution of a sample (Example 1) in DMSO. The solutions were incubated at 37° C. for 0, 10 and 60 minutes, and an organic solvent was added thereto. The solutions were centrifuged, and the concentration of the sample (unchanged form) in the supernatant was determined by high performance liquid chromatography/mass spectrometry (LC/MS). Based on the data obtained, remaining rate (%) was calculated according to the following equation. Remaining rate(%)=amount of sample 10 or 60 minutes after incubation/amount of sample at zero time after incubation×100

A short description of data set [3]: Metabolic stability test in liver S9 (hamster). The note with it: Hamster liver S9, 2 mg protein/mL, 37° C. In kind it is in vitro ADME. The protocol: as §1

Take `CCOC(=O)C(COC(=O)Cc1ccc(NC(=O)c2ccccc2-c2ccc(C(F)(F)F)cc2)c(OC(C)=O)c1)(C(=O)OCC)c1ccccc1` [Example 1, 2-(2-{3-acetoxy-4-[(4′-trifluoromethyl-biphenyl-2-carbonyl)amino]phenyl}acetoxymethyl)-2-phenylmalonic acid diethyl ester]: the IC50 in data set [1] was less than 10 nM. For the same molecule, the “Remaining rate (%) after 10 minutes” value is 4.1% in data set [2] (10 minutes) and 1.6% in data set [3] (10 minutes). Besides, the “Remaining rate (%) after 60 minutes” value in data set [2] (60 minutes) and in data set [3] (60 minutes) was 0.0% throughout.

Source of the values: patent US7432392B2, “Ester derivatives and medical use thereof” (Japan Tobacco Inc., priority 2003, dated 2008).
